The record followed here is patent publication US11180504B2 (ORCHID PHARMA LTD., priority 2016, dated 2021).

Test [1] relates to carbapenemase producing K. pneumoniae. Description: MIC by broth micro-dilution (CLSI), carbapenemase producing K. pneumoniae. Type of test: cell-based, Klebsiella pneumoniae. For orientation: In broth dilution the organism is exposed to a series of concentrations in liquid medium.
Test [2] relates to methicillin-sensitive Staphylococcus aureus. Nature of the test: MIC by broth micro-dilution (CLSI), methicillin-sensitive S. aureus. Type of test: cell-based. As to conditions: MSSA S. aureus ATCC29213.
The test system of test [3] is carbapenem sensitive Escherichia coli. Nature of the test: MIC by broth micro-dilution (CLSI), carbapenem sensitive E. coli. Type of test: cell-based.
Test [4] has as its system carbapenem sensitive Pseudomonas aeruginosa. Description: MIC by broth micro-dilution (CLSI), carbapenem sensitive P. aeruginosa. Type of test: cell-based.
[5] abbreviates: Klebsiella pneumoniae, ATCCBAA1705, KPC-2 K. pneumoniae ATCC BAA-1705, read-out: MIC.
Setting [6] is: Staphylococcus aureus, ATCC 29213 / MSSA, read-out: MIC.
Setting [7] is: Escherichia coli, ATCC25922, ESBL −ve E. coli ATCC25922, read-out: MIC.
Where [8] appears, read: Pseudomonas aeruginosa, ATCC27853, Meropenem susceptible P. aeruginosa ATCC27853, read-out: MIC.
Setting [9] is: Meropenem susceptible P. aeruginosa ATCC27853.
[10] abbreviates: KPC-2 K. pneumoniae ATCC BAA-1705.

Values after ≈ are worked out from the molar mass of the structure shown. Like-named read-outs stand apart in the source and are kept apart here.

A word on the MIC: it is the lowest concentration that inhibits growth of the organism. Take `C[C@@H](NC(=O)Cn1cnnn1)[C@H]1C(=O)N2C(C(=O)O)=C(S[C@@H]3CN[C@H](C(=O)N4CC5CNCC5C4)C3)[C@H](C)[C@H]12` (stereo partly drawn) [Example 540, (4R,5S,6R)-6-((R)-1-(2-(1H-tetrazol-1-yl)acetamido)ethyl)-4-methyl-3-((3S,5S)-5-(octahydropyrrolo-[3,4-c]pyrrole-2-carbonyl)pyrrolidin-3-ylthio)-7-oxo-1-azabicyclo[3.2.0]hept-2-ene-2-carboxylic acid]: the MIC in test [1] (setting [5]) worked out at 2 µg/mL (≈ 3.57 µM); in test [2] (setting [6]) it was 4 µg/mL (≈ 7.15 µM); in test [3] (setting [7]), 0.25 µg/mL (≈ 0.447 µM); in test [4] (setting [8]), 1 µg/mL (≈ 1.79 µM).

Take `C[C@@H](NC(=O)Cn1cnnn1)[C@H]1C(=O)N2C(C(=O)O)=C(SC3CN(C4=NCCS4)C3)[C@H](C)[C@@H]12` [Example 294]: the MIC was determined as 1 µg/mL (≈ 2.03 µM) in test [1] (setting [5]), 1 µg/mL (≈ 2.03 µM) in test [2] (setting [6]), 0.06 µg/mL (≈ 0.122 µM) in test [3] (setting [7]) and 16 µg/mL (≈ 32.5 µM) in test [4] (setting [8]).

In the case of `C[C@@H](NC(=O)Cn1cnnn1)[C@H]1C(=O)N2C(C(=O)O)=C(S[C@@H]3CN[C@H](C(=O)N4CCC(C(=O)NCC(O)CN)CC4)C3)[C@H](C)[C@H]12` (single isomer, unassigned) [Example 572], the MIC in test [1] (setting [5]) was 2 µg/mL (≈ 3.08 µM); in test [2] (setting [6]) it was 4 µg/mL (≈ 6.17 µM); in test [3] (setting [7]) it was 0.25 µg/mL (≈ 0.385 µM); in test [4] (setting [9]), 4 µg/mL (≈ 6.17 µM).

For `C[C@@H](NC(=O)Cn1cnnn1)[C@H]1C(=O)N2C(C(=O)O)=C(S[C@@H]3CN[C@H](C(=O)N4CCC5CNCC5C4)C3)[C@H](C)[C@H]12` (single isomer, unassigned) [Example 534], the MIC in test [1] (setting [10]) stood at 1 µg/mL (≈ 1.74 µM); in test [2], 2 µg/mL (≈ 3.49 µM); in test [3] (ESBL −ve E. coli ATCC25922) it was 0.125 µg/mL (≈ 0.218 µM); in test [4] (setting [9]), 1 µg/mL (≈ 1.74 µM).

In the case of `C[C@@H](NC(=O)Cn1cnnn1)[C@H]1C(=O)N2C(C(=O)O)=C(S[C@@H]3CN[C@H](C(=O)N4CCC5CNCC5(C(=O)O)C4)C3)[C@H](C)[C@H]12` (stereo partly drawn) [Example 563, 5-((2S,4S)-4-((4R,5S,6R)-6-((R)-1-(2-(1H-tetrazol-1-yl)acetamido)ethyl)-2-carboxy-4-methyl-7-oxo-1-azabicyclo[3.2.0]hept-2-en-3-yl-thio)pyrrolidine-2-carbonyl)octahydro-1H-pyrrolo[3,4-c]pyridine-3a-carboxylic acid], the MIC came to 2 µg/mL (≈ 3.24 µM) in test [1] (setting [10]), 16 µg/mL (≈ 25.9 µM) in test [2], 0.25 µg/mL (≈ 0.405 µM) in test [3] (ESBL −ve E. coli ATCC25922) and 2 µg/mL (≈ 3.24 µM) in test [4] (setting [9]).

`C[C@@H](NC(=O)Cn1cnnn1)[C@H]1C(=O)N2C(C(=O)O)=C(S[C@@H]3CN[C@H](CNS(N)(=O)=O)C3)[C@H](C)[C@H]12` [Example 305, (4R,5S,6R)-6-((R) - 1-(2-(1H-tetrazol-1-yl)acetamido)ethyl)-4-methyl-7-oxo-3-((3S,5S)-5-((sulfamoylamino)methyl)pyrrolidin-3-ylthio)-1-azabicyclo[3.2.0]hept-2-ene-2-carboxylic acid]: the MIC in test [1] (setting [5]) was 1 µg/mL (≈ 1.89 µM); in test [2] (setting [6]) it was 2 µg/mL (≈ 3.78 µM); in test [3] (setting [7]) it was 0.25 µg/mL (≈ 0.472 µM); in test [4] (setting [8]), 8 µg/mL (≈ 15.1 µM).

Turning to `C[C@@H](NC(=O)Cn1cnnn1)[C@H]1C(=O)N2C(C(=O)O)=C(S[C@@H]3CN[C@H](C(=O)N4CC5CCNC5C4)C3)[C@H](C)[C@H]12` (stereo partly drawn) [Example 506, (4R,5S,6R)-6-((R)-1-(2-(1H-tetrazol-1-yl)acetamido)ethyl)-4-methyl-3-((3S,5S)-5-(octahydropyrrolo[3,4-b]pyrrole-5-carbonyl)pyrrolidin-3-ylthio)-7-oxo-1-azabicyclo[3.2.0]hept-2-ene-2-carboxylic acid], the MIC was 1 µg/mL (≈ 1.79 µM) in test [1] (setting [10]), 4 µg/mL (≈ 7.15 µM) in test [2], 0.25 µg/mL (≈ 0.447 µM) in test [3] (ESBL −ve E. coli ATCC25922) and 1 µg/mL (≈ 1.79 µM) in test [4] (setting [9]).

`C[C@@H](NC(=O)C(F)F)[C@H]1C(=O)N2C(C(=O)O)=C(S[C@@H]3CN[C@H](C(=O)N4C[C@H](NC(=N)N)[C@@H](O)C4)C3)[C@H](C)[C@H]12` [Example 247]: the MIC in test [1] (setting [5]) was 32 µg/mL (≈ 57.2 µM); in test [2] (setting [6]), 32 µg/mL (≈ 57.2 µM); in test [3] (setting [7]) it was 4 µg/mL (≈ 7.15 µM); in test [4] (setting [8]), greater than 128 µg/mL.

On to `C[C@@H](NC(=O)Cn1cnnn1)[C@H]1C(=O)N2C(C(=O)O)=C(S[C@@H]3CN[C@H](C(=O)Nc4cccc(C(=O)N5CCNCC5)c4)C3)[C@H](C)[C@H]12` [Example 483, (4R,5S,6R)-6-((R)-1-(2-(1H-tetrazol-1-yl)acetamido)ethyl)-4-methyl-7-oxo-3-((3S,5S)-5-(3-(piperazine-1-carbonyl)phenylcarbamoyl)pyrrolidin-3-ylthio)-1-azabicyclo[3.2.0]], for which the MIC in test [1] (setting [5]) was 4 µg/mL (≈ 6.13 µM); in test [2] (setting [6]), 4 µg/mL (≈ 6.13 µM); in test [3] (setting [7]), 0.5 µg/mL (≈ 0.766 µM); in test [4] (setting [8]), 128 µg/mL (≈ 196 µM).

For the compound `C[C@@H](NC(=O)Cn1cnnn1)[C@H]1C(=O)N2C(C(=O)O)=C(S[C@@H]3CN[C@H](C(=O)N4CCO[C@H]5CNC[C@H]54)C3)[C@H](C)[C@H]12` [Example 471, (4R,5S,6R)-6-((R)-1-(2-(1H-tetrazol-1-yl)acetamido)ethyl)-4-methyl-3-((3S,5S)-5-((4aR,7aS)-octahydropyrrolo[3,4-b][1,4]oxazine-4-carbonyl)pyrrolidin-3-ylthio)-7-oxo-1-azabicyclo[3.2.0]hept-2-ene-2-carboxylic acid], the MIC in test [1] (setting [5]) is 2 µg/mL (≈ 3.47 µM); in test [2] (setting [6]) it was 2 µg/mL (≈ 3.47 µM); in test [3] (setting [7]) it was 0.5 µg/mL (≈ 0.869 µM); in test [4] (setting [8]) it was 4 µg/mL (≈ 6.95 µM).

`C[C@@H](NC(=O)Cn1cnnn1)[C@H]1C(=O)N2C(C(=O)O)=C(S[C@@H]3CN[C@H](C(=O)N4CC5CNC5C4)C3)[C@H](C)[C@H]12` (stereo partly drawn) [Example 591, (4R,5S,6R)-6-((R)-1-(2-(1H-tetrazol-1-yl)acetamido)ethyl)-3-((3S,5S)-5-(3,6-diazabicyclo[3.2.0]heptane-3-carbonyl)pyrrolidin-3-ylthio)-4-methyl-7-oxo-1-azabicyclo[3.2.0]hept-2-ene-2-carboxylic acid]: the MIC in test [1] (setting [10]) stood at 1 µg/mL (≈ 1.83 µM); in test [2], 2 µg/mL (≈ 3.67 µM); in test [3] (ESBL −ve E. coli ATCC25922), 0.25 µg/mL (≈ 0.458 µM); in test [4] (setting [9]), 1 µg/mL (≈ 1.83 µM).

Take `C[C@@H](NC(=O)Cn1cnnn1)C1C(=O)N2C(C(=O)O)=C(S[C@@H]3CN[C@H](C(=O)N4CCN(C[C@@H](F)CN)CC4)C3)[C@H](C)C12` (stereo in doubt) [Example 462, (4R,5S,6R)-6-((R)-1-(2-(1H-tetrazol-1-yl)acetamido)ethyl)-3-((3S,5S)-5-(4-((S)-3-amino-2-fluoropropyl)piperazine-1-carbonyl)pyrrolidin-3-ylthio)-4-methyl-7-oxo-1-azabicyclo[3.2.0]hept-2-ene-2-carboxylic acid]: the MIC was 1 µg/mL (≈ 1.64 µM) in test [1] (setting [5]), 4 µg/mL (≈ 6.57 µM) in test [2] (setting [6]), 0.25 µg/mL (≈ 0.411 µM) in test [3] (setting [7]) and 2 µg/mL (≈ 3.29 µM) in test [4] (setting [8]).

As for `C[C@@H](NC(=O)Cn1nnc(C(F)(F)F)n1)[C@H]1C(=O)N2C(C(=O)O)=C(S[C@@H]3CN[C@H](C(=O)N4CC[C@@H](N)C4)C3)[C@H](C)[C@H]12` [Example 334, (4R,5S,6R)-3-((3S,5S)-5-((R)-3-aminopyrrolidine-1-carbonyl)pyrrolidin-3-ylthio)-4-methyl-7-oxo-6-((R) - 1-(2-(5-(trifluoromethyl)-2H-tetrazol-2-yl)acetamido)ethyl) - 1-azabicyclo[3.2.0]hept-2-ene-2-carboxylic acid], the MIC in test [1] (setting [5]) was determined as 32 µg/mL (≈ 53.2 µM); in test [2] (setting [6]), 4 µg/mL (≈ 6.65 µM); in test [3] (setting [7]), 0.5 µg/mL (≈ 0.831 µM); in test [4] (setting [8]), 128 µg/mL (≈ 213 µM).

Regarding `Cc1nnnn1CC(=O)N[C@H](C)[C@H]1C(=O)N2C(C(=O)O)=C(S[C@@H]3CN[C@H](C(=O)N(C)C)C3)[C@H](C)[C@H]12` [Example 330, (4R,5S,6R)-3-((3S,5S)-5-(dimethylcarbamoyl)pyrrolidin-3-ylthio)-4-methyl-6-((R) - 1-(2-(5-methyl-1H-tetrazol-1-yl)acetamido)ethyl)-7-oxo-1-azabicyclo[3.2.0]hept-2-ene-2-carboxylic acid], the MIC in test [1] (setting [5]) came out at 2 µg/mL (≈ 3.95 µM); in test [2] (setting [6]), 8 µg/mL (≈ 15.8 µM); in test [3] (setting [7]), 0.25 µg/mL (≈ 0.493 µM); in test [4] (setting [8]), 64 µg/mL (≈ 126 µM).

As to `C[C@@H](NC(=O)Cn1cnnn1)[C@H]1C(=O)N2C(C(=O)O)=C(S[C@@H]3CN[C@H](C(=O)N4CCC5NCCCC54)C3)[C@H](C)[C@H]12` (single isomer, unassigned) [Example 469], the MIC in test [1] (setting [10]) was 2 µg/mL (≈ 3.49 µM); in test [2] it was 4 µg/mL (≈ 6.97 µM); in test [3] (ESBL −ve E. coli ATCC25922), 0.5 µg/mL (≈ 0.872 µM); in test [4] (setting [9]), 4 µg/mL (≈ 6.97 µM).

With `C[C@@H](NC(=O)CC(N)=O)[C@H]1C(=O)N2C(C(=O)O)=C(S[C@@H]3CN[C@H](C(=O)N(C)C)C3)[C@H](C)[C@H]12` [Example 268], the MIC stood at 4 µg/mL (≈ 8.56 µM) in test [1] (setting [5]), 8 µg/mL (≈ 17.1 µM) in test [2] (setting [6]), 2 µg/mL (≈ 4.28 µM) in test [3] (setting [7]) and 32 µg/mL (≈ 68.4 µM) in test [4] (setting [8]).

Turning to `C[C@@H](NC(=O)Cn1cnnn1)[C@H]1C(=O)N2C(C(=O)O)=C(S[C@@H]3CN[C@H](C(=O)N4CC5[C@H](O)[C@H](N)C[C@@]5(CO)C4)C3)[C@H](C)[C@H]12` (stereo partly drawn) [Example 547, (4R,5S,6R)-6-((R)-1-(2-(1H-tetrazol-1-yl)acetamido)ethyl)-3-((3S,5S)-5-((3aS,5R,6S)-5-amino-6-hydroxy-3a-(hydroxymethyl)octahydro-cyclopenta[c]pyrrole-2-carbonyl)pyrrolidin-3-ylthio)-4-methyl-7-oxo-1-azabicyclo-[3.2.0]-hept-2-ene-2-carboxylic acid], the MIC in test [1] (setting [5]) stood at 2 µg/mL (≈ 3.23 µM); in test [2] (setting [6]), 4 µg/mL (≈ 6.45 µM); in test [3] (setting [7]) it was 0.5 µg/mL (≈ 0.807 µM); in test [4] (setting [8]), 2 µg/mL (≈ 3.23 µM).
